# Biological target: human CD73 enzyme (Homo sapiens (Human), UniProt P21589)
# Assay: Biochemical CD73 Assay
# Conditions: recombinant human CD73 2 nM, AMP 40 μM, Malachite Green free phosphate detection
# Method: Activity of recombinant CD73 was measured by quantification of free phosphate using the Malachite Green detection system (R&D Systems #DY996). Test compounds were solubilized in DMSO and dispensed into 384-well polystyrene plates in a 8-point 3× titration in duplicates. Then, 10 μL of 4 nM human CD73 enzyme (Novoprotein #C446) in phosphate- free assay buffer (10 mM HEPES, pH 7.4, 125 mM NaCl, 1 mM KCl, 10 mM glucose, 2 mM MgCl2) was added to the plates. The compound and enzyme were incubated for 15 min at RT. Then, 10 μL of 80 μM AMP (Sigma Aldrich #A1752) in the assay buffer was added and the reaction mixture was incubated for […] at 37° C. The final concentrations of CD73 and AMP in the reaction were 2 nM and 40 μM, respectively. The reaction was stopped by adding 5 μL of Malachite Green reagent A and incubating for 10 mM at RT, followed by addition of 5 μL of Malachite Green reagent B and incubation for 20 mM at RT. Absorbance was then read at 620 nm with the Flexstation spectrophotometer (Molecular Devices). The IC50 values were determined using a four-parameter nonlinear regression curve fit.
# human CD73 enzyme, sequence (P21589 27-574): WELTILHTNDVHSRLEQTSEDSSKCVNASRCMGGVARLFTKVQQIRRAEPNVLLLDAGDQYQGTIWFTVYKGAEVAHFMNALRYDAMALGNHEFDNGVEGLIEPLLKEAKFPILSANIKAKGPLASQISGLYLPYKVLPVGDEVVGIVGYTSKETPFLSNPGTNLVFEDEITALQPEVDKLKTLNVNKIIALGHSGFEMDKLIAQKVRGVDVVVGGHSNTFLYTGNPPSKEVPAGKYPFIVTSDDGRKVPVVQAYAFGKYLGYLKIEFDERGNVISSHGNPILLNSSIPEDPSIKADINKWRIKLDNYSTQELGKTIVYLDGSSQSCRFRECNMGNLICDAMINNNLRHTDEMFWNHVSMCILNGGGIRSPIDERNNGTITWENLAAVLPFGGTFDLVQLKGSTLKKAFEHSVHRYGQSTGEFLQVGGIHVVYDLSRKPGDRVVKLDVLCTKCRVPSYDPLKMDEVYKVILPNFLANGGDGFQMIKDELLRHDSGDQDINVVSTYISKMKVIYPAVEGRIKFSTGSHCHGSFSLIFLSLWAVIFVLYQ
row,SMILES,IC50 [nM]
1,COC[C@@](OC[C@H]1O[C@@H](n2ncc3c(NC4CCCC4)nc(Cl)nc32)[C@H](O)[C@@H]1O)(C(=O)NS(=O)(=O)N1CCCC1)P(=O)(O)O [Example 4],6
2,COC[C@@](OC[C@H]1O[C@@H](n2ncc3c(NC4CCCC4)nc(Cl)nc32)[C@H](O)[C@@H]1O)(C(=O)NS(=O)(=O)N1CCCC1=O)P(=O)(O)O [Example 3],0.48
3,COC[C@@](OC[C@H]1O[C@@H](n2ncc3c(NC4CCCC4)nc(Cl)nc32)[C@H](O)[C@@H]1O)(C(=O)NS(=O)(=O)N1CC[C@@H](O)C1)P(=O)(O)O [Example 7],6.2
4,"COC[C@@](OC[C@H]1O[C@@H](n2ncc3c(NC4CCCC4)nc(Cl)nc32)[C@H](O)[C@@H]1O)(C(=O)NS(=O)(=O)N1CC[C@H](O)C1)P(=O)(O)O [Example 9, ((S)-2-(((2R,3S,4R,5R)-5-(6-Chloro-4-(cyclopentylamino)-1H-pyrazolo[3,4-d]pyrimidin-1-yl)-3,4-dihydroxytetrahydrofuran-2-yl)methoxy)-1-(((S)-3-hydroxypyrrolidine)-1-sulfonamido)-3-methoxy-1-oxopropan-2-yl)phosphonic Acid]",3
5,"COC[C@](OC[C@H]1O[C@@H](n2ncc3c(NC4CCCC4)nc(Cl)nc32)[C@H](O)[C@@H]1O)(C(=O)NS(=O)(=O)N1CCC1)P(=O)(O)O [Example 6, ((R)-1-(Azetidine-1-sulfonamido)-2-(((2R,3S,4R,5R)-5-(6-chloro-4-(cyclopentylamino)-1H-pyrazolo[3,4-d]pyrimidin-1-yl)-3,4-dihydroxytetrahydrofuran-2-yl)methoxy)-3-methoxy-1-oxopropan-2-yl)phosphonic Acid]",805
6,"COC[C@](OC[C@H]1O[C@@H](n2ncc3c(NC4CCCC4)nc(Cl)nc32)[C@H](O)[C@@H]1O)(C(=O)NS(=O)(=O)N(C)C)P(=O)(O)O [Example 2, ((R)-2-(((2R,3S,4R,5R)-5-(6-chloro-4-(cyclopentylamino)-1H-pyrazolo[3,4-d]pyrimidin-1-yl)-3,4-dihydroxytetrahydrofuran-2-yl)methoxy)-1-((N,N-dimethylsulfamoyl)amino)-3-methoxy-1-oxourouan-2-yl)phosphonic Acid]",114
7,"COC[C@@](OC[C@H]1O[C@@H](n2ncc3c(NC4CCCC4)nc(Cl)nc32)[C@H](O)[C@@H]1O)(C(=O)NS(=O)(=O)N(C)C)P(=O)(O)O [Example 1, ((S)-2-(((2R,3S,4R,5R)-5-(6-Chloro-4-(cyclopentylamino)-1H-pyrazolo[3,4-d]pyrimidin-1-yl)-3,4-dihydroxytetrahydrofuran-2-yl)methoxy)-1-((N,N-dimethylsulfamoyl)amino)-3-methoxy-1-oxopropan-2-yl)phosphonic Acid]",6.4
8,"COC[C@@](OC[C@H]1O[C@@H](n2ncc3c(NC4CCCC4)nc(Cl)nc32)[C@H](O)[C@@H]1O)(C(=O)NS(=O)(=O)N1CCC1)P(=O)(O)O [Example 5, ((S)-1-(Azetidine-1-sulfonamido)-2-(((2R,3S,4R,5R)-5-(6-chloro-4-(cyclopentylamino)-1H-pyrazolo[3,4-d]pyrimidin-1-yl)-3,4-dihydroxytetrahydrofuran-2-yl)methoxy)-3-methoxy-1-oxopropan-2-yl)phosphonic Acid]",2.3

# Source: US20240140979A1, “HETEROCYCLIC INHIBITORS OF CD73 FOR TREATMENT OF DISEASE” (Teon Therapeutics, Inc., priority 2022, published 2024)
